According to patent publication US20120070401A1, “Composition and Method for Promoting Wound Healing” (priority 2010, published 2012):

System: corneal reepithelialization
Test: rabbit corneal wound healing model (corneal reepithelialization after 9.5-mm epithelial wound, fluorescein-stained wound area)
Format: in vivo, New Zealand White rabbits
Details: n=10 per group
Text: Animals. One hundred and ten pathogen-free New Zealand White rabbits were obtained from a commercial laboratory. Animals were at least 18 weeks old and 2-3 kg body weight at the time of treatment.
Pre-Treatment Examinations. Prior to placement on study, each animal underwent a pre-treatment ophthalmic examination (slit lamp with fluorescein staining). […] Animals were then randomly assigned to eleven treatment groups (10 animals per group) according to a modified Latin square design. Animals were fasted at least 12 hours prior to corneal wound surgery.
Wounding Procedure. […]
Corneal Wound Evaluation. The corneal wound condition was evaluated immediately post wounding and at 12, 24, 36, 48, 60, and 72 hours. […] From the photographs, the perimeter of the wounds was determined using a Mechanical Polar Planimeter (LASISCO; Los Angeles, Calif.).
Numerical results were expressed as mean±SEM, n=10, unless indicated otherwise. Data were analyzed by a two-way ANOVA with repeated measures followed by the Tukey-Kramer test. In addition, overall effects were evaluated by analyzing integrated responses calculated as the areas under the curve (AUC) for each treatment over the time course. […] Integrated responses were analyzed by a one-way ANOVA followed by the Tukey-Kramer test. […]

## benzalkonium chloride [BAK]
0 to 72 hours, trapezoidal rule
  integrated wound area (AUC over the time course) compared to the saline control: no significant effects
topical, 14 instillations over 72 hours, time points 12-72 hours
  effect on corneal reepithelialization time-course (wound area) compared to the saline control: No significant effects
